Reference: ChEMBL document CHEMBL3259720, “Design of novel multiple-acting ligands towards SERT and 5-HT2C receptors” (Bioorg Med Chem Lett, 2014)
pKi: −log10 of the molar value.

Experiments:
[1] = biological target: T1, 5-hydroxytryptamine receptor 2C (Rattus norvegicus, UniProt P08909); assay: biochemical
T1 sequence (P08909 whole entry): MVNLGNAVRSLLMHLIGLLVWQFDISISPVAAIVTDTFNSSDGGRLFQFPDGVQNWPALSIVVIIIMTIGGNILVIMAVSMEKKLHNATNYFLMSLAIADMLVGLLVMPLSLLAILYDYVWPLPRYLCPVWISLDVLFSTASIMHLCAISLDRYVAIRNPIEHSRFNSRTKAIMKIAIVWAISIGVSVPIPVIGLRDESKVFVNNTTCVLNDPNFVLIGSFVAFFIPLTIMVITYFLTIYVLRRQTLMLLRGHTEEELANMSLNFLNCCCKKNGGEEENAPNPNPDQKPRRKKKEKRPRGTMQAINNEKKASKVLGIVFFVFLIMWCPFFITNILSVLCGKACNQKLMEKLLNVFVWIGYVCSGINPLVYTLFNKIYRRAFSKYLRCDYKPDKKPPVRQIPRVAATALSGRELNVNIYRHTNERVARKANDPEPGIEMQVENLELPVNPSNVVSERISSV
Description: Displacement of [3H]mesulergine from 5-HT2C receptor in Sprague-Dawley rat choroid plexus membranes after 30 mins by liquid scintillation spectrophotometric analysis

[2] = biological target: Sodium-dependent serotonin transporter (Rattus norvegicus, UniProt P31652); assay: biochemical
Chain of Sodium-dependent serotonin transporter (P31652 whole entry): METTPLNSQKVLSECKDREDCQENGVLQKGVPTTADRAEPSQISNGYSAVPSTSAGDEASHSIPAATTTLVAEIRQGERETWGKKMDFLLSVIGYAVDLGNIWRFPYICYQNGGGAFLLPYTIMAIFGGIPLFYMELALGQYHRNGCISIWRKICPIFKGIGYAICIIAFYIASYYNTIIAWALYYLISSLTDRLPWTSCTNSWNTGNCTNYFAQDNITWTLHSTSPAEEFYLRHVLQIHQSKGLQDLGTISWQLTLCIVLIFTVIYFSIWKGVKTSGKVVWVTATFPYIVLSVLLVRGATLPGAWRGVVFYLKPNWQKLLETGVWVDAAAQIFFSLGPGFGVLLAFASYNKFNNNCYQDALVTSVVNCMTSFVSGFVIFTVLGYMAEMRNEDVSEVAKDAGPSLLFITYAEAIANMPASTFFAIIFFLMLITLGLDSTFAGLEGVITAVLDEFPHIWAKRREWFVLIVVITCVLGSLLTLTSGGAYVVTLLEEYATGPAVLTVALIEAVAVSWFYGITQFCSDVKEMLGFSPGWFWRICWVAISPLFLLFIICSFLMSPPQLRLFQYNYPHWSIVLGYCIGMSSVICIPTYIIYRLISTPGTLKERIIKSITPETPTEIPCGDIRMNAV
Description: Displacement of [3H]citalopram from SERT in Sprague-Dawley rat whole brain membranes after 1 hr by liquid scintillation spectrophotometric analysis

Liver = assay: Intrinsic clearance in mouse liver microsomes measured per gram of tissue at 2.5 uM after 20 mins; assay type: ADME
Liver microsome = assay: Intrinsic clearance in human liver microsomes measured per gram of tissue at 2.5 uM after 20 mins; assay type: ADME
[3] = Apparent permeability from apical to basolateral side in vinblastine-treated human Caco2 cells at 3 to 50 uM; assay type: ADME, cell-based; settings: Caco-2
in vitro = settings: human, Caco-2
Description: Efflux ratio of apparent permeability from basolateral to apical over apical to basolateral side in vinblastine-treated human Caco2 cells at 3 to 50 uM

[4] = biological target: Sodium-dependent serotonin transporter (Rattus norvegicus) (UniProt P31652); assay: Displacement of [3H]citalopram from SERT in Sprague-Dawley rat whole brain membranes at 300 nM after 1 hr by liquid scintillation spectrophotometric analysis relative to control; assay type: tissue-based; settings: Membrane
Chain of Sodium-dependent serotonin transporter (Rattus norvegicus) (P31652 whole entry): as above

[5] = biological target: T2, 5-hydroxytryptamine receptor 2C (Rattus norvegicus) (UniProt P08909); assay: Displacement of [3H]mesulergine from 5-HT2C receptor in Sprague-Dawley rat choroid plexus membranes at 1000 nM after 30 mins by liquid scintillation spectrophotometric analysis relative to control; settings: Membrane
T2 sequence (whole entry): T1 sequence (P08909 whole entry)

Structure (SMILES)	pKi [1]	pKi [2]	further results
CN(C)CCC(Oc1ccc(NC(=O)c2ccc(Cl)c(Cl)c2)cc1)c1ccccc1 (centres undefined)	7.24	7.19	Papp A→B at 50 µM [3]: 11.3 ×10⁻⁶ cm/s; CLH (Liver microsome): 0.65 mL/min; efflux ratio at 50 µM (in vitro): 1.1
CN(C)CCC(Oc1ccc(NC(=O)Nc2ccc3c(ccn3C)c2)cn1)c1ccccc1 (centres undefined)	–	–	inhibition [4]: -5%; inhibition [5]: 7%
CN(C)CCC(Oc1ccc(NC(=O)N(C)c2ccc(Cl)c(Cl)c2)cc1)c1ccccc1 (centres undefined)	7.10	7.05	efflux ratio at 50 µM (in vitro): 1.6
CN(C)CCC(Oc1ccc(NC(=O)Nc2ccc3nccn3c2)cc1)c1ccccc1 (centres undefined)	–	8.40	inhibition [5]: 53%
CN(C)CCC(Oc1ccc(NC(=O)Nc2ccc3ccccc3c2)cn1)c1ccccc1 (centres undefined)	–	–	inhibition [4]: 3%; inhibition [5]: 43%
Cn1ccc2cc(NC(=O)Nc3cccnc3)ccc21	6.91	< 5.00	–
CN(C)CCC(Oc1ccc(NC(=O)Nc2ccc3ccn(C)c3c2)cn1)c1ccccc1 (centres undefined)	–	–	inhibition [4]: 1%; inhibition [5]: 15%
COc1ccc(NC(=O)Nc2ccc(Cl)c(Cl)c2)cc1OC(CCN(C)C)c1ccccc1 (centres undefined)	6.71	–	inhibition [4]: -9%
CN(C)CCC(Oc1cccc(NC(=O)Nc2ccc3ccccc3c2)c1)c1ccccc1 (centres undefined)	7.06	7.55	–
COc1ccc(C(=O)Nc2ccc(OC(CCN(C)C)c3ccccc3)cc2)cc1C(F)(F)F (centres undefined)	7.04	7.65	–
COc1ccc(C(=O)Nc2ccc(OC(CCN(C)C)c3ccccc3)cc2)cc1Cl (centres undefined)	6.82	7.80	–
CN(C)CCC(Oc1cccc(NC(=O)Nc2ccc3c(ccn3C)c2)c1)c1ccccc1 (centres undefined)	6.19	8.03	–

More lines, in order of rising pKi [1], values ahead:

pKi [1]	pKi [2]	Structure (SMILES)	further results
7.34	7.46	Cc1ccc(C(=O)Nc2ccc(OC(CCN(C)C)c3ccccc3)cc2)cc1Cl (centres undefined)	Papp A→B at 50 µM [3]: 19.9 ×10⁻⁶ cm/s; CLH (Liver microsome): 0.59 mL/min; efflux ratio at 50 µM (in vitro): 0.7
7.79	7.51	COc1cc(NC(=O)Nc2ccc(OC(CCN(C)C)c3ccccc3)cc2)ccc1Cl (centres undefined)	–
7.80	8.05	CN(C)CCC(Oc1ccc(NC(=O)Nc2ccc3c(ccn3C)c2)cc1)c1ccccc1 (centres undefined)	Papp A→B at 50 µM [3]: 5.8 ×10⁻⁶ cm/s; efflux ratio at 50 µM (in vitro): 5.3
7.95	7.39	COc1ccc(NC(=O)Nc2ccc(OC(CCN(C)C)c3ccccc3)cc2)cc1Cl (centres undefined)	Papp A→B at 50 µM [3]: 7.5 ×10⁻⁶ cm/s; CLH (Liver microsome): 0.68 mL/min; efflux ratio at 50 µM (in vitro): 2.2
7.96	7.71	CN(C)CCC(Oc1ccc(NC(=O)Nc2ccc3ccn(C)c3c2)cc1)c1ccccc1 (centres undefined)	–
7.97	7.42	CCn1ccc2cc(NC(=O)Nc3ccc(OC(CCN(C)C)c4ccccc4)cc3)ccc21 (centres undefined)	–
7.99	6.99	CN(C)CCC(Oc1ccc(N2CCN(c3ccc(Cl)c(Cl)c3)C2=O)cc1)c1ccccc1 (centres undefined)	–
8.21	< 5.00	O=C(Nc1cccnc1)Nc1ccc2ccccc2c1	–
8.47	–	CSc1ccc(NC(=O)Nc2ccc(OC(CCN(C)C)c3ccccc3)cc2)cc1C(F)(F)F (centres undefined)	inhibition [4]: 31%
8.48	7.02	COc1ccc(NC(=O)Nc2ccc(OC(CCN(C)C)c3ccccc3)cc2)cc1C(F)(F)F (centres undefined)	–
8.54	6.87	CN(C)CCC(Oc1ccc(NC(=O)Nc2ccc(Cl)c(Cl)c2)cc1)c1ccccc1 (centres undefined)	–
8.55	–	COc1cc(NC(=O)Nc2ccc(Cl)c(Cl)c2)ccc1OC(CCN(C)C)c1ccccc1 (centres undefined)	inhibition [4]: 38%
8.62	6.92	Cc1ccc(NC(=O)Nc2ccc(OC(CCN(C)C)c3ccccc3)cc2)cc1I (centres undefined)	–
8.77	7.21	CN(C)CCC(Oc1ccc(NC(=O)Nc2ccc3ccccc3c2)cc1)c1ccccc1 (centres undefined)	CLH (Liver): 0.03 mL/min
9.22	7.21	Cc1ccc(NC(=O)Nc2ccc(OC(CCN(C)C)c3ccccc3)cc2)cc1Cl (centres undefined)	CLH (Liver): 0.9 mL/min; CLH (Liver microsome): 0.06 mL/min
